Data taken from patent publication US11421278B2, “Method to monitor pharmacodynamic responses mediated by in vivo administration of glucocorticoids” (BRISTOL-MYERS SQUIBB COMPANY, priority 2017, dated 2022).

Tests used:
[1] = tested on: GC gene signature in whole blood; assay: In vivo GC gene signature kinetics, Prednisoline in Healthy Male Cohort 1; parameters: species or system human
Experimental: (§1) Since the glucocorticoid (GC) signature accurately captured glucocorticoid receptor (GR) agonist activity in vitro, the behavior of the GC gene signature in vivo was tested. Normal healthy volunteers (NHV) were dosed with placebo, 10 mg prednisolone, or 150 or 300 mg GR modulator BMS-791826. Blood was drawn before and 4 hours post-dosing, and RNA was analyzed by Affymetrix gene expression profiling. […] To address the kinetics of the GC gene signature response, whole blood RNA profiles from NHVs who were administered different doses of prednisolone was analyzed. […] For all but the highest dose of prednisolone, GC gene signature scores had returned to baseline levels by 8 hours post-dose. The signature score was at baseline levels in all groups by 48 hours post-dosing.
(§2) To score an individual sample by the enrichment level of GC gene signatures, we adapted the single-sample gene set enrichment analysis (ssGSEA) algorithm (Barbie D A, et. al., Nature 2009; 462:108-12) to generate a composite score, which was implemented using the Gene Set Variation Analysis package in R (version 3.4.0, Hanzelmann S, et. al., BMC Bioinformatics 2013; 14:7). The algorithm was modified so that enrichment scores fell between −1 and 1, representing the lowest to the highest possible rankings of GC genes in the transcriptome.
Male normal healthy volunteers were randomly assigned (6 participants/group) to receive daily doses of 5, 10, or 30 mg prednisolone for 7 days. Two participants received placebo. PAXgene tubes were collected before dosing and at 2, 4, 8, 48, 144, and 216 hours post-dose.

[2] = tested on: whole blood; assay: Whole blood cultured in vitro, GC gene signature (ssGSEA) score; type: cell-based, human
Source text: Many of these genes were known glucocorticoid-regulated genes (Chinenov Y, et. al., BMC Genomics 2014; 15:656). […] Network analysis of the regulated genes indicated enrichment for immune-response pathways. Single-sample gene set enrichment analysis (ssGSEA) algorithm was used to generate a composite score (or gene signature) for enrichment of these genes in the transcriptomes of individual samples (Barbie D A, et. al. Nature 2009; 462:108-12).
For profiling of whole blood, anticoagulant citrate dextrose solution A-containing whole blood from 4 normal healthy volunteers was cultured with either DMSO vehicle, 200 nM prednisolone, 1 μM prednisolone, 5 μM prednisolone, 5 μM GR modulators BMS-791826, or 10 μM BMS-776532 for 5 hours, followed by transfer to a PAXgene tube. Total RNA was isolated, and then treated with DNase I and cleaned up using a Qiagen RNeasy MinElute Cleanup Kit. RNA concentrations were determined using NanoDrop (Thermo Fisher Scientific, Waltham, Mass., USA) and RNA quality was evaluated using the Experion electrophoresis system (Bio-Rad Laboratories, Hercules, Calif., USA). All target labeling reagents were purchased from Affymetrix (West Sacramento, Calif., USA).
Double-stranded cDNAs were synthesized from 1 μg of total RNA through reverse transcription with an oligo-dT primer containing the T7 RNA polymerase promoter and double-strand conversion using the cDNA Synthesis System (Invitrogen, Carlsbad, Calif., USA). Biotin-labeled cRNA was generated from the cDNA and used to probe a Human Genome HT_HG-U133A plate (Affymetrix, Sunnyvale, Calif., USA), consisting of 96 single HG-U133A arrays in a 96-well plate. All cDNA and cRNA target preparation steps were processed on a Caliper GeneChip Array Station from Affymetrix. Array hybridization, washing, and scanning were performed according to the manufacturer's recommendations. […]

[3] = tested on: glucocorticoid-regulated genes in whole blood; assay: Whole blood induction of single genes, prednisolone versus placebo, Prednisoline in Healthy Male cohort 2; type: in vivo, human
Source text: Further refinement of the 64 member gene signature would facilitate implementation in the clinic. […] The list was further filtered for detectable expression in the abatacept SLE trial. Of the initial 64 genes, 18 (FKBP5, ECHDC3, IL1R2, ZBTB16, IRS2, IRAK3, ACSL1, DUSP1, PHC2, TLR2, TSC22D3, SLA, CRISPLD2, MAN2A2, FAR2, CEBPD, SPTLC2, HSPA6) met these criteria. The top 3 genes (FKBP5, ECHDC3 and IL1R2), top 6 genes (FKBP5, ECHDC3 IL1R2, ZBTB16, IRS2, IRAK3) and top 8 genes (FKBP5, ECHDC3, IL1R2, ZBTB16, IRS2, IRAK3, ACSL1, DUSP1) from the list were then used to calculate ssGSEA scores.
CEL files from the Affymetrix Array Station were processed and normalized using the Robust Multi-Array Average (RMA) algorithm (Gautier I, et. al., Bioinformatics 2004; 20:307-15) using the “Affy” package in R (version 3.2.1; 16) and Bioconductor (Gentleman R C, et. al. Genome Biol. 2004, 5 (10):R80) with custom CDF files from BrainArray (version 18.0.0; Dai M, et. al., Nucleic Acids Res 2005; 33:e175). Differential gene expression analysis was run to compare gene expression levels in prednisolone-treated versus control samples, using a moderated t-test (Ritchie M E, et. al., Nucleic Acids Res 2015; 43:e47) in Array Studio (OmicSoft, Cary, N.C., USA). P values were adjusted using the multiple test correction method which is also called false discovery rate (FDR, Benjamini Y, et. al., J. Royal Statistical Soc., Series B 1995; 57:289).
Male normal healthy volunteers were randomly assigned to receive either a placebo of polyethylene glycol (PEG)-400 solution (4 participants); a single daily oral dose of GR modulator BMS-791826 (150 or 300 mg) as a PEG-400 solution (6 participants/dose); or a single daily dose of 10 mg prednisolone (4 participants) for 3 consecutive days. PAXgene tubes were collected before dosing and at 4 hours post-dose on day 1.

[4] = tested on: peripheral blood mononuclear cells (PBMCs); assay: Gene expression profiling of PBMCs cultured with prednisolone or DMSO (Affymetrix); type: cell-based, human; conditions: 1 μM prednisolone, 6 hours
Experimental: In order to monitor glucocorticoid-dependent responses in peripheral blood, genes modulated by prednisolone in human PBMCs were identified. PBMCs from 10 independent normal healthy volunteer donors were treated with either DMSO control or 1 μM prednisolone for 6 hours.
Lymphocytes were isolated from the blood of 10 independent donors using Ficoll gradient centrifugation. Cells were cultured at 5 million lymphocytes/well of a 96-well flat-bottom block plate (Qiagen, Hilden, Germany) in 500 μl assay media (RPMI-1640 with GlutaMAX, 10% charcoal-stripped fetal bovine serum; Gibco Laboratories, Gaithersburg, Md., USA). Cells were cultured for 6 hours with either dimethyl sulfoxide (DMSO) vehicle or 1 μM prednisolone. After 6 hours, cells were pelleted and resuspended in 1 ml nucleic acid purification lysis solution (Applied Biosystems, Foster City, Calif., USA) diluted 1:2 with calcium and magnesium-free phosphate-buffered saline (Invitrogen, Carlsbad, Calif., USA). Cells were incubated in lysis buffer for 10 min at room temperature followed by storage at −80° C. RNA was isolated using the Qiagen RNeasy isolation kit according to manufacturer's instructions. […]

[5] = tested on: GC gene signature in whole blood; assay: In vivo GC gene signature, Prednisoline in Healthy Male Cohort 2; parameters: species or system human; conditions: normal healthy volunteers, oral, 10 mg prednisolone or 150 or 300 mg BMS-791826, 4 hours post-dosing, versus pre-dose and placebo (FIG. 3A)
Experimental: as §1
as §2, with “transcriptome. […]” for “transcriptome.”

[6] = tested on: GC gene signature in whole blood; assay: GC gene signature in baseline samples of the abatacept SLE phase II trial by reported prednisone dose; type: in vivo, human; conditions: SLE patients, dose high (>30 mg), medium (10-30 mg), low (<10 mg) (FIG. 4B)
Experimental: To determine if the glucocorticoid signature could differentiate between patients based on treatment status, expression of the signature in cross-sectional cohorts of patients with SLE or RA were analyzed. Relative to either normal healthy controls or patients treated with other standard-of-care medications, the patients with SLE or RA who were prescribed glucocorticoids had elevated signature scores (FIG. 4A). While the glucocorticoid signatures were elevated, there was significant inter-patient variability in the signature scores. Baseline samples from a phase II study of abatacept in SLE was analyzed (Fleishaker D L, et. al., BMC Musculoskelet Disord 2016; 17:29) for expression of the glucocorticoid gene signature (FIG. 4B). […] However, there was again significant inter-patient variability in glucocorticoid gene signature scores in all groups. This could reflect steroid resistance in some patients or compliance issues with some patients.
Baseline PAXgene collections and complete blood counts were obtained from 144 adults with SLE meeting the criteria of a British Isles Lupus Assessment Group (BILAG) score of A or B. The population at baseline consisted of 53% of patients with polyarthritis, 35% with discoid lupus, and 12% with serositis. […]

C[C@]12C=CC(=O)C=C1CC[C@@H]1[C@@H]2[C@@H](O)C[C@@]2(C)[C@H]1CC[C@]2(O)C(=O)CO [prednisolone]
time of peak of GC gene signature score post-dose ([1]; 5, 10 or 30 mg prednisolone): 4 h | time by which GC gene signature scores had returned to baseline ([1]; all but the highest dose of prednisolone): ≤ 8 h | time by which signature score was at baseline levels ([1]; all groups): ≤ 48 h | GC gene signature score, dose dependence ([1]; normal healthy volunteers, 5, 10 or 30 mg prednisolone (FIG. 3B)): increased dose dependently | glucocorticoid gene signature score, rank order ([2]; 5 μM prednisolone, 5 μM BMS-791826, 10 μM BMS-776532, 5 hours (FIG. 2E)): prednisolone>BMS-791826>BMS-776532 | ssGSEA score for the upregulated genes ([2]; whole blood, different concentrations of prednisolone, 5 hours (FIG. 1C)): increased dose dependently | expression of the downregulated genes (ssGSEA score) ([2]; whole blood, different concentrations of prednisolone, 5 hours (FIG. 1D)): decreased in a dose-dependent manner | logFC ACSL1 [3]: 1.43 | logFC CEBPD [3]: 0.86 | logFC CRISPLD2 [3]: 0.94 | logFC DUSP1 [3]: 1.37 | logFC ECHDC3 [3]: 2.34 | logFC FAR2 [3]: 0.88 | logFC FKBP5 [3]: 2.85 | logFC HSPA6 [3]: 0.67 | logFC IRAK3 [3]: 1.45 | logFC IRS2 [3]: 1.75 | logFC MAN2A2 [3]: 0.91 | logFC PHC2 [3]: 1.15 | logFC SLA [3]: 0.98 | logFC SPTLC2 [3]: 0.75 | logFC TLR2 [3]: 1.11 | logFC TSC22D3 [3]: 1.08 | logFC ZBTB16 [3]: 2.04 | fold change of upregulated genes versus vehicle ([4]; FDR-adjusted P ≤0.05, genes of FIG. 1A): > 2 fold | fold change of downregulated genes versus vehicle ([4]; FDR-adjusted P ≤0.05, genes of FIG. 1B): > 2 fold | GC signature score [5]: significantly elevated

C[C@]12C=CC(=O)C=C1CC[C@@H]1[C@@H]2C(=O)C[C@@]2(C)[C@H]1CC[C@]2(O)C(=O)CO [prednisone]
glucocorticoid gene signature scores versus reported dose [6]: generally aligned well with reported prednisone dose
